In patent US11207285B2, “Diabetes treatment regimens using alpha, alpha-substituted long-chain amphipathic carboxylates” (SYNDROMEX LTD., priority 2016, dated 2021):

Columns and labels:
half-life in rats = settings: rat, in vivo, read-out: half-life (T1/2) (converted)
Description: (§1) The half-life (T1/2) of Medica compounds in humans differs considerably from their half-life in model animals. […] This difference in half-life could not be expected, and is of considerable significance when designing a new treatment protocol for humans.

half-life in dogs = settings: dog, in vivo, read-out: half-life (T1/2) (converted)
Description: as §1

half-life in humans = type: in vivo; settings: human, in vivo, read-out: half-life (T1/2) (converted)
Description: as §1

HepG2 human liver cells = assay: inhibition of glucose production in HepG2 cells; type: cell-based
Procedure: (§2) The compound 2,2,15,15-tetramethylhexadecane-1,16-dioic acid (also designated M16αα), and also the compounds […] (M18αα) and 2,2,19,19-tetramethyl-[…]-1,20-dioic acid (M20αα), were tested for their effect on glucose uptake and production, and the expression of glucose- and lipid-related genes in in vitro models. […] Inhibition of glucose production was tested in HepG2 human liver cells.

[1] = system: genes that control liver gluconeogenesis and lipid synthesis; assay: expression of glucose- and lipid-related genes in in vitro models; type: cell-based
Procedure: as §2

[2] = system: cultured human HepG2 liver cells; assay: inhibition of lipoprotein production in HepG2 cells; type: cell-based
[3] = system: fully differentiated 3T3L1 adipocytes; assay: glucose uptake in 3T3L1 adipocytes; type: cell-based; settings: insulin as positive control
Procedure: as §2

[4] = system: C57BL/KsJ (db/db) Spontaneous T2D mice; assay: glucose lowering effect in db/db mice; type: in vivo; settings: once daily oral 30 mg/kg
Procedure: In addition, the glucose lowering effect of the above three compounds M16αα, M18αα and M20αα was tested in C57BL/KsJ (db/db) Spontaneous T2D mice, which serve as a model for T2D. These animals are characterized by hyperphagia, obesity, hyperglycemia and insulin resistance. The mice were treated once daily by oral administration of the tested compound at 30 mg/kg.

`CC(C)(CCCCCCCCCCC(C)(C)CC(=O)O)CC(=O)O` [Medica16-ββ, 3,3,14,14-tetramethylhexadecanedioic acid, reference compound] showed a half-life (half-life in rats) of 2.7 ± 0.4 h, a half-life (half-life in dogs) of 25.8 h and a half-life (half-life in humans) of 31.5 ± 12.8 h.
With `CC(C)(CCCCCCCCCCCCCCCCC(C)(C)C(=O)O)C(=O)O` [M20αα] the hepatic glucose production (HepG2 human liver cells) was “significant or full inhibition”, the “expression of genes that control liver gluconeogenesis and lipid synthesis” value [1] was “effective in inhibiting” and the lipoprotein production [2] was “significant or full inhibition”. The glucose uptake [3] was “increase glucose uptake”, the blood glucose levels [4] was “significantly decrease” and the serum insulin levels [4] was “significantly decrease”. The serum triglyceride levels [4] was “significantly decrease”.
With `CC(C)(CCCCCCCCCCCCCCC(C)(C)C(=O)O)C(=O)O` [M18αα, 2,2,17,17-tetramethylocta-decane-1,18-dioic acid] the hepatic glucose production (HepG2 human liver cells) was “significant or full inhibition”, the “expression of genes that control liver gluconeogenesis and lipid synthesis” value [1] was “effective in inhibiting” and the lipoprotein production [2] was “significant or full inhibition”. For the same compound, the glucose uptake [3] was “increase glucose uptake”, the blood glucose levels [4] was “significantly decrease” and the serum insulin levels [4] was “significantly decrease”. The serum triglyceride levels [4] was “significantly decrease”.
